Assay results taken from patent publication US20120083013A1, “GLUCOSYLTRANSFERASE SPECIFIC TO POSITION-4 OF FUROFURAN-TYPE LIGNAN, AND POLYNUCLEOTIDE ENCODING SAME” (Suntory Holdings Limited, priority 2009, published 2012).

Tests used:
RengUGT14 = test: glycosyl acceptor selectivity of recombinant RengUGT14 (standard enzyme reaction, HPLC analysis); assay type: biochemical, Forsythia koreana; conditions: 1 mM UDP-glucose, 100 μM glycosyl acceptor substrate, pH 7.5, 30° C., one hour; for transglycosylation activity (activity against the lignan of structural formula (Ia) made 100): relative activity as glycosyl acceptor substrate
Protocol: To clarify the biochemical functions of the enzymes, the two enzymes were expressed in Escherichia coli. Using the plasmid for two RengUGT Escherichia coli expression obtained above, Escherichia coli BL21 (DE3) strain was transformed in a conventional manner. The resulting transformants were shake cultured in 4 ml of LB medium (10 g/l tryptone peptone, 5 g/l yeast extract, 1 g/l NaCl) containing 50 μg/ml of ampicillin at 37° C. overnight. When the cells reached the stationary phase, 4 ml of the culture broth was inoculated onto 80 ml of fresh medium of the same composition, followed by shake culture at 37° C. At the point when the cell turbidity (OD 600) reached approximately 0.5, IPTG in a final concentration of 0.5 mM was added to the cells, followed by shake culture at 18° C. for 20 hours. The following procedures were all carried out at 4° C. The transformants cultured were collected by centrifugation (5,000×g, 10 mins.) and suspended by adding 1 ml/g cell of Buffer S (20 mM HEPES buffer (pH 7.5), 20 mM imidazole and 14 mM […]. Subsequently, the suspension was ultrasonicated (15 secs×8 times) and then centrifuged (15,000×g, 15 mins.). The supernatant obtained was recovered as a crude enzyme solution. The crude enzyme solution was loaded onto His SpinTrap (GE Healthcare), which had been equilibrated with Buffer S, and centrifuged (70×g, 30 secs.). After washing with the buffer, the proteins bound to the column were eluted stepwise with 5 ml each of Buffer S containing 100 mM and 500 mM imidazole. In each of the eluted fractions, the buffer was replaced through a Microcon YM-30 (Amicon) by 20 mM HEPES buffer (pH 7.5)/14 mM β-mercapto ethanol (magnification of dialysis, ×1000). As a result of the SDS-PAGE analysis, in the fraction eluted with […], the protein was confirmed at approximately 50 KDa of the estimated molecular weight for the two RengUGTs. This fraction was used for the enzyme analysis (FIG. 2). Conditions for the standard enzyme reaction are as follows. […] Based on the analysis that the spectra from 220 nm to 330 nm were measured using SPD-10AV (Shimadzu Corp.), search was made for substances having two absorption maxima (230 nm and 280 nm) inherent to lignans. Under the conditions, the lignan of structural formula (Ia) was detected at approximately 11.6 minutes, the lignan of structural formula (Ib) at approximately 12.2 minutes, the lignan of structural formula (Ic) at approximately 13.8 minutes, and the lignan of structural formula (V) at approximately 9.8 minutes. The expression level of RengUGT14 recombinant protein was high in Escherichia coli (FIG. 2), and the glycosyl acceptor selectivity was evaluated using this enzyme. […]

RengUGT13 = test: glucosyltransferase reaction of recombinant RengUGT13 with lignan (HPLC, LC-MS of the product); assay type: biochemical, Forsythia koreana; conditions: 1 mM UDP-glucose, 100 μM glycosyl acceptor substrate, pH 7.5, 30° C., one hour
Protocol: To clarify the biochemical functions of the enzymes, the two enzymes were expressed in Escherichia coli. Using the plasmid for two RengUGT Escherichia coli expression obtained above, Escherichia coli BL21 (DE3) strain was transformed in a conventional manner. The resulting transformants were shake cultured in 4 ml of LB medium (10 g/l tryptone peptone, 5 g/l yeast extract, 1 g/l NaCl) containing 50 μg/ml of ampicillin at 37° C. overnight. When the cells reached the stationary phase, 4 ml of the culture broth was inoculated onto 80 ml of fresh medium of the same composition, followed by shake culture at 37° C. […]
Lc-2010c (Shimadzu Corp.) was used for LC; eluent A: 0.1% TFA and eluent B: 0.1% TFA/90% acetonitrile as the moving phase; Develosil-C30-UG5 (Nomura Chemical, 4.6 mm×150 mm) as the column at 40° C. […] Based on the analysis that the spectra from 220 nm to 330 nm were measured using SPD-10AV (Shimadzu Corp.), search was made for substances having two absorption maxima (230 nm and 280 nm) inherent to lignans. Under the conditions, the lignan of structural formula (Ia) was detected at approximately 11.6 minutes, the lignan of structural formula (Ib) at approximately 12.2 minutes, the lignan of structural formula (Ic) at approximately 13.8 minutes, and the lignan of structural formula (V) at approximately 9.8 minutes. […]

| Compound | transglycosylation activity (activity against the lignan of structural formula (Ia) made 100) (RengUGT14) | glucose transfer to the lignan by RengUGT14 (product peak at HPLC, monoglucoside by LC-MS) (RengUGT14) | glucose transfer to the lignan by RengUGT13 (product peak at HPLC, monoglucoside by LC-MS) (RengUGT13) |
| --- | --- | --- | --- |
| COc1cc([C@H]2OC[C@H]3[C@@H]2CO[C@H]3c2ccc(O)c(OC)c2)ccc1O [structural formula (Ib)] | 112 |  |  |
| COc1cc([C@H]2OC[C@H]3[C@@H]2CO[C@@H]3c2ccc(O)c(OC)c2)ccc1O [structural formula (Ia)] | 100 | activity of transferring one molecule of glucose | activity of transferring one molecule of glucose |
| COc1cc([C@H]2OC[C@H]3[C@@H]2CO[C@H]3c2ccc(OC)c(OC)c2)ccc1O [structural formula (Ic)] | 128 |  |  |
